ChEMBL document CHEMBL1143474, “Synthesis and pharmacological evaluation of Tic-hydantoin derivatives as selective sigma1 ligands. Part 1” (Bioorg Med Chem Lett, 2005)

Columns and labels:
Sigma 2 receptor = assay: Inhibitory concentration against opioid receptor sigma 2 of rat cerebral cortex using [3H]DTG upon incubation for 120 minutes at 22 degree C; format: tissue-based
[1] = target: Sigma non-opioid intracellular receptor 1 (Cavia porcellus) (UniProt Q60492); assay: Inhibitory concentration against opioid receptor sigma 1 of guinea pig cerebral cortex using [3H](+)-pentazocine upon incubation for 150 minutes at 22 degree C
Chain of Sigma non-opioid intracellular receptor 1 (Cavia porcellus) (Q60492 whole entry, looked up): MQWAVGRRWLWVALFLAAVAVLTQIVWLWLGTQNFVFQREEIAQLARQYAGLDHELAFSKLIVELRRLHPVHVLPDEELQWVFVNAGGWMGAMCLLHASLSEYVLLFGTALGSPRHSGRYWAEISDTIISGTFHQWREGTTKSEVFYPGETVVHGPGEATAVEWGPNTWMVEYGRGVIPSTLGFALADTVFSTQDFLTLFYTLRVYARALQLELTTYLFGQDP

IC50 (Sigma 2 receptor) | IC50 [1] | SMILES
507 nM |  | O=C1[C@@H]2Cc3ccccc3CN2C(=S)N1CCN1CCCCC1
> 1000 nM |  | O=C1[C@@H]2Cc3ccccc3N2C(=O)N1CCCN1CCCCC1
> 1000 nM |  | O=C1[C@H]2Cc3ccccc3CN2C(=O)N1CCN1CCCCC1
> 1000 nM | 16 nM | O=C1[C@@H]2Cc3ccccc3CN2C(=O)N1CCN1CCCCC1
> 1000 nM | 21.5 nM | O=C1[C@@H]2Cc3ccccc3CN2C(=O)N1CCCN1CCCCC1
> 1000 nM |  | c1ccc2c(c1)C[C@H]1CN(CCN3CCCCC3)CN1C2
> 1000 nM |  | O=C1N(CCN2CCCCC2)C[C@@H]2Cc3ccccc3CN12
